Activity calls are given as the source filed them. No cut-off for these calls is given here.

These results are taken from ChEMBL document CHEMBL4152235, “Synthesis, anionophoric activity and apoptosis-inducing bioactivity of benzimidazolyl-based transmembrane anion transporters” (Eur J Med Chem, 2018).

A short description of assay [1]: Binding affinity to chloride ion assessed as 1:1 compound-Cl- complex formation at 4.1 mM using tetra(n-butyl)ammonium chloride by ESI MS spectrometric method.
Assay [2] in a line: Binding affinity to chloride ion at 1.5 x 10^-5M using tetra(n-butyl)ammonium chloride measured after 5 mins by spectrophotometric titration method.
The nature of assay [3]: Ionophoric activity across pyranine dye encapsulated pH 7 egg yolk L-alpha-phosphatidylcholine-based liposomal membranes assessed as chloride ion transport by measuring induction of pH discharge after 20 mins in presence of NaCl loaded external vesicles by fluorescence method.
Assay [4] can be described thus: Ionophoric activity across pyranine dye encapsulated pH 7 egg yolk L-alpha-phosphatidylcholine-based liposomal membranes assessed as chloride ion transport by measuring induction of pH discharge at 1.95 x 10^-3 mol% after 20 mins in presence of LiCl loaded external vesicles by fluorescence method.
In assay [5] the test system is MCF7. As to the kind of experiment: Ionophoric activity across human MCF7 cells assessed as chloride ion efflux up to 10 uM after 2 hrs by MQAE dye based fluorescence assay. It is filed as cell-based.
For assay [6], the system named is MCF7. As to the kind of experiment: Cytotoxicity against human MCF7 cells assessed as reduction in cell viability at 50 uM after 48 hrs by MTT assay relative to control. It is filed as functional. The settings on record: MCF7, 48 h. A general note: Tetrazolium dyes change colour on reduction, which living cells bring about.
Assay [7] deals with MCF7. Kind of assay: Cytotoxicity against human MCF7 cells assessed as reduction in cell viability after 48 hrs by MTT assay. Format: functional, cell-based. The settings on record: MCF7, 48 h.
For a further assay, the system named is HepG2. As to the kind of experiment: Cytotoxicity against human HepG2 cells assessed as reduction in cell viability after 48 hrs by MTT assay. The settings on record: HepG2, 48 h. It is filed as functional, cell-based.
In the next assay the test system is L02. Kind of assay: Cytotoxicity against human LO2 cells assessed as reduction in cell viability after 48 hrs by MTT assay. Format: cell-based. The note with it: L02, 48 h.
In assay [8] the test system is HeLa. Kind of assay: Cytotoxicity against human HeLa cells assessed as reduction in cell viability up to 10 uM after 12 hrs in presence of chloride by MTT assay. Format: functional, cell-based.
Assay [9] concerns MCF7. Kind of assay: Cytotoxicity against human MCF7 cells assessed as reduction in cell viability up to 10 uM after 12 hrs in absence of chloride by MTT assay. It is filed as functional, cell-based.
Assay [10] deals with HeLa. As to the kind of experiment: Disruption of mitochondrial membrane potential in human HeLa cells assessed as decrease in ratio of red to green fluorescence at 5 to 10 uM after 24 hrs by JC1 staining based fluorescence microscopic analysis. It is filed as functional, cell-based.

As a reminder, the inhibition is the percentage by which the read-out fell short of the control. The IC50 is the concentration at which inhibition is half-maximal. Turning to `O=[N+]([O-])c1cc(-c2nc3ccc(C(F)(F)F)cc3[nH]2)cc(-c2nc3ccc(C(F)(F)F)cc3[nH]2)c1`, the result (in [1]; in assay [4]; in the assay with MCF7 [5]; in the assay on HeLa [8]; in the assay on MCF7 [9]; in the assay with HeLa [10]) was Active. For the same molecule, the Ka in [2] is 7.53 ×10³ /M. For the same molecule, the EC50 in [3] amounted to 3.76 ×10⁻³ mol%; in [3] (read-out: EC50), 0.05 µM. Moreover, the inhibition at 50 µM in the assay with MCF7 [6] is 99.2%. Further, the concentration for half-maximal inhibition (IC50) in the assay on MCF7 [7] is 9.4 to 9.7 µM; with HepG2 it was 4.1 µM; with L02 it was 3.7 µM.
